Experiments:
[1] = FP802 concentration in the spinal cord after subcutaneous osmotic pump delivery; format: in vivo
Text: We next used FP802 in the transgenic SOD1^G93A mouse model of ALS that expresses mutant human SOD1 with a glycine to alanine substitution at position 93 and whose general features resemble ALS in humans.[24]^,[25] SOD1^G93A mice represent a widely accepted animal model used extensively in ALS drug discovery to evaluate the efficacy of compounds now in clinical trials, which include masitinib, pridopidine, fasudil, guanabenz, and AMX0035.[26]^,[27]^,[28]^,[29]^,[30]^,[31]^,[32] We first confirmed using immunoblot analysis the reduction of EAAT2/GLT-1 expression in the spinal cord of SOD1^G93A mice (Figures 1F and 1G). Deregulation of glutamate uptake systems may lead to an increase in toxic eNMDAR signaling, which could be the cause of motor neuron death. To test this hypothesis, we applied FP802 subcutaneously to SOD1^G93A mice using an implanted ALZET osmotic mini pump to achieve a steady release of the drug. […] Following successful deactivation of the NMDAR/TRPM4 death signaling complex by FP802 in vivo, we next assessed potential therapeutic benefits of FP802 in SOD1^G93A mice. To implement an experimental design that resembles a clinical situation, we started treatment of SOD1^G93A mice with FP802 at the time of onset of motor deficits, which was around week 15.[33]^,[34]
(§1) A total of 83 heterozygous SOD1^G93A and 22 wild-type littermates were employed in this study. Eight WT and 12 SOD1^G93A mice were used to determine the EAAT2 protein levels in the spinal cord. Three SOD1^G93A mice were treated with FP802 to explore the concentration of FP802 in the spinal cord. Four SOD1^G93A mice were used to test the tolerability of mice to subcutaneously ALZET osmotic pump (type 2004) implantation with FP802 that allowed a continuous and constant supply of compound to the animals for 4 weeks. Eight wild-type mice were used to explore the disruption of the NMDAR/TRPM4 death signaling complex by FP802. In total, 52 SOD1^G93A mice were treated with FP802 or vehicle via ALZET osmotic pump from week 15 for 30 days (four cohorts). […]

[2] = target: T1, NMDAR/TRPM4 complex (Mus musculus, UniProt Q7TN37); assay: Co-immunoprecipitation of the NMDAR/TRPM4 complex from lumbar spinal cord lysates of treated animals; format: in vivo; details: two weeks after osmotic pump implantation
T1 construct: Lumbar spinal cords were dissected from mice two weeks after ALZET osmotic pump (1002) implantation; from tissue; host or cells: lumbar spinal cord of wild-type mice treated in vivo with vehicle or FP802
T1 sequence (Q7TN37 whole entry, one chain of several): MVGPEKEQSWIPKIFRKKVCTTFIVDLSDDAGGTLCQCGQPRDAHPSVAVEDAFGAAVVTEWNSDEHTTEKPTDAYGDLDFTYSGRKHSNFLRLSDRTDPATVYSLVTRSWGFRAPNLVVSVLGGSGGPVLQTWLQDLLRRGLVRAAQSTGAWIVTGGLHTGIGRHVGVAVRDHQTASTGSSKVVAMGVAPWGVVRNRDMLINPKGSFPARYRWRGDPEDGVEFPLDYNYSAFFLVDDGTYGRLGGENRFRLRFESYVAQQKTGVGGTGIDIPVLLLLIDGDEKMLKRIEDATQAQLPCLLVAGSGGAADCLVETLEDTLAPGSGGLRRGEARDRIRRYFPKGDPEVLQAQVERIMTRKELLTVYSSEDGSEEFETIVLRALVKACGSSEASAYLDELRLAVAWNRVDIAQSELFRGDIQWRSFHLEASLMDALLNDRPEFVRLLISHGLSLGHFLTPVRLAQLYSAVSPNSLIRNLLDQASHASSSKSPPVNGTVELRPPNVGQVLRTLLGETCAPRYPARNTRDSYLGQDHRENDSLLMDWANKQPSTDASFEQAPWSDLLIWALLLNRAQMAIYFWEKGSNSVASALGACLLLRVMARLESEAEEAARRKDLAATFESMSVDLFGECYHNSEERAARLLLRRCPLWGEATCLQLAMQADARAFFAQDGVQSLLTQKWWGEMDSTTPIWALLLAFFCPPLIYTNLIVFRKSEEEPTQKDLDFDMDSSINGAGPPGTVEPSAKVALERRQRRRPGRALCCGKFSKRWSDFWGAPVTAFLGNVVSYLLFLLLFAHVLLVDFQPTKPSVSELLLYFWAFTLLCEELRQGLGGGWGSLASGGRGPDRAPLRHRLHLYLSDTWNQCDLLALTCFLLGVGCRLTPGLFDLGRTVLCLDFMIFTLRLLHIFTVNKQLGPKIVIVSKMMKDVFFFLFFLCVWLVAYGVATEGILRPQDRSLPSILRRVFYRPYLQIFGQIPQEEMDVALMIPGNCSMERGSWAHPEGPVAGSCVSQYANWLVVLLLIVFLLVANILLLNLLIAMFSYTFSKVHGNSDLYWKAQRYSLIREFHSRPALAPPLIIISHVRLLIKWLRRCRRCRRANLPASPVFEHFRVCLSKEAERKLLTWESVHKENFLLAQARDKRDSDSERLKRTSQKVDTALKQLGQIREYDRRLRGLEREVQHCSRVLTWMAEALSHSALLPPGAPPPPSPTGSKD
Protocol: as §1, with “cohorts). It was not possible to extend the treatment beyond the 30 days application period because the poor health state of many animals was incompatible with the anesthesia required for surgical implantation of a second osmotic pump. The number of animals used for experiments was specified in the figure legends.” for “cohorts).”
All procedures for immunoprecipitation were carried out at 4°C as described before.[20] […] Protein concentrations of the supernatants were measured using the Pierce BCA Protein Assay Kit. […]

In the case of CCN(CCN)Cc1cccc(Cl)c1 [FP802], the “concentration in the spinal cord” value ([1]; SOD1G93A mice, 40 mg/kg/day s.c. ALZET osmotic pump, 2 weeks, n = 3) is reported as 7.54 ± 4.79 nmol/g, the concentration at 2 weeks ([1]; SOD1G93A transgenic, mouse, spinal cord, sc, SOD1G93A mice, 40 mg/kg/day s.c., 2 weeks, read-out: concentration in the spinal cord, corresponding molar concentration) is reported as 3 to 12 µM and the “crossing of the mouse blood-spinal cord barrier” value ([1]; s.c. ALZET osmotic mini pump) is reported as “readily crossed”. For the same compound, the “interaction of TRPM4 with the NMDAR subunit GluN2B (co-immunoprecipitation)” value [2] was “disrupted”.

— PMC10897598, “TwinF interface inhibitor FP802 stops loss of motor neurons and mitigates disease progression in a mouse model of ALS” (Cell Reports Medicine, 2024)
